Where two headings read alike, the source gives them in different places.
Experiments:
[1] = tested on: rat intestinal microbial culture; test: Metabolism of paeoniflorin by intestinal bacteria in vitro; format: in vitro ADME; settings: 24-h incubation
Experimental: The colon contents of six rats were pooled, and 5 g of the sample was transferred to a ziplock bag and then mixed thoroughly with anaerobic medium (100 mL). After mixing completely, the cultures were stored at 37°C and preincubated for 1 h. Then, 10 μL of paeoniflorin (100 mg/mL) was added to fresh rat intestinal microbial culture (990 μL) under anaerobic conditions of N2, with a final concentration of 1 mg/mL of paeoniflorin in the culture system ([Hattori et al., 1988]). The inactivated bacteria solution was used as a negative control. Cultures were incubated at 37°C for 0, 2, 6, 12, and 24 h, respectively. After terminated the reaction with 3 volumes of acetonitrile, samples were vortexed for 30 s and then centrifuged at 16,162 g for 5 min. A total of 100 μL of the supernatant were transferred to a centrifuge tube, centrifuged at 16,162 g for 5 min and filtered through a 0.45 μm microporous membrane. Finally, 5 μL of the filtrate solution was collected for analysis.

[2] = Brain distribution of paeoniflorin and benzoic acid in rats; format: in vivo, rat; settings: at 2 h after oral administration of paeoniflorin 20 mg/kg
[3] = Excretion of paeoniflorin in rats (urine, feces, bile); format: in vivo, rat; settings: for Excretion rate of paeoniflorin (%), Urine (%), cumulative / Excretion rate of paeoniflorin (%), Feces (%), cumulative: total excretion, oral 20 mg/kg
Experimental: Then, urine samples and feces samples were collected at 0, 6, 12, 24, 48, 72, and 96 h.

[4] = Pharmacokinetics of paeoniflorin in normal SD rats (plasma, LC-MS/MS); format: in vivo, rat; settings: for MRT last: read-out: MRT (0-t); for MRT inf: read-out: MRT (0-∞); for half-life: read-out: t1/2z (converted)
Experimental: Chromatography separation was performed using an XSS T3 column (3.5 μm, 2.1 mm × 100 mm, Waters, Milford, MA, United States) with the column temperature maintained at 40°C at a flow rate of 0.4 mL/min. […] The gradient was as follows: 25% eluent B for 2 min; 25–85% B from 2 to 4 min; 85–25% B from 4 to 5 min and held at 25% from 5 to 7 min. The autosampler temperature was set to 4°C. Mass spectrometry was carried out using multiple reaction monitoring mode (MRM). […] The nebulizing gas flow rate was 2.8 L/min, the drying gas flow rate was 10 L/min, and the heating gas flow rate was 10 L/min. […] Plasma samples were immediately stored at 4°C until analysis. The method validation assays were carried out in terms of specificity, linearity, sensitivity, accuracy, precisions, recovery, matrix effect and stability. […] Statistical analyses were conducted using two-way ANOVA and Student’s t-test with GraphPad Prism Version 5 (GraphPad Software, La Jolla, CA, United States). The data are expressed as the means ± standard deviation. […] DAS 3.0 was used to calculate the plasma pharmacokinetic parameters.

[5] = Pharmacokinetics of paeoniflorin in pseudo-germ-free (PGF) rats; format: in vivo; settings: SD, rat, oral paeoniflorin 20 mg/kg, plasma analyte = labelled substance; for AUC(0-t) / Cmax: plasma, po, 20 mg/kg
Experimental: Chromatography separation was performed using an XSS T3 column (3.5 μm, 2.1 mm × 100 mm, Waters, Milford, MA, United States) with the column temperature maintained at 40°C at a flow rate of 0.4 mL/min. […] The gradient was as follows: 25% eluent B for 2 min; 25–85% B from 2 to 4 min; 85–25% B from 4 to 5 min and held at 25% from 5 to 7 min. The autosampler temperature was set to 4°C. Mass spectrometry was carried out using multiple reaction monitoring mode (MRM). […] The nebulizing gas flow rate was 2.8 L/min, the drying gas flow rate was 10 L/min, and the heating gas flow rate was 10 L/min. […] The remaining fourteen SD rats were orally administered saline equivalently. Two days after administration, pharmacokinetic experiments were performed. […] Plasma samples were immediately stored at 4°C until analysis. Statistical analyses were conducted using two-way ANOVA and Student’s t-test with GraphPad Prism Version 5 (GraphPad Software, La Jolla, CA, United States). The data are expressed as the means ± standard deviation. […] DAS 3.0 was used to calculate the plasma pharmacokinetic parameters.

gut microbiota = test: Analysis of microbial diversity by 16S rRNA gene sequencing; format: in vivo, rat; settings: depression model rats, oral 20 mg/kg, 2 weeks of treatment
Experimental: Rat feces of the chronic unpredictable depression model group were collected after 2 weeks of treatment. Three groups, including the normal control group, the model control group, the paeoniflorin treatment group (oral, 20 mg/kg) were selected. Barcoded pyro sequencing analysis was performed on the V3 and V4 regions by 16S rRNA gene sequencing.

[6] = Excretion of paeoniflorin in rats (urine, feces, bile); format: in vivo, rat; settings: normal rats, paeoniflorin 20 mg/kg, excreted form = labelled substance, n = 6
[7] = Metabolism of paeoniflorin in liver microsome in vitro; format: in vitro ADME; settings: 5 μM paeoniflorin, 1 mg/mL protein, NADPH, 37°C, incubation 2 h
Experimental: Samples were incubated at 37°C in a shaker. The incubation mixtures were 0.2 mL of the final volume and the protein concentration was 1 mg/mL. […] The reaction was initiated by the addition of NADPH after a 3 min preincubation at 37°C. The above reactions were terminated by the addition of 0.4 mL acetonitrile (1:2). Proteins were precipitated by centrifugation at 10,625 g for 5 min, and 10 μL supernatant was injected into the UPLC system for quantification.

[8] = normal rats, oral paeoniflorin 20 mg/kg, excreted form = labelled substance, n = 6
[9] = SD, rat, plasma, intravenous 2 mg/kg, normal rats, n = 5
[10] = SD, rat, plasma, normal rats, oral 20 mg/kg, n = 6
[11] = SD, rat, normal rats, oral paeoniflorin 20 mg/kg, plasma analyte = labelled substance, n = 6
[12] = normal rats, oral 20 mg/kg, n = 6
[13] = normal rats, oral paeoniflorin 20 mg/kg, plasma analyte = labelled substance, n = 6
[14] = PGF rats (antibiotic pretreated)

Compound: C[C@@]12C[C@@]3(O)O[C@@H](O1)[C@]1(COC(=O)c4ccccc4)[C@H]3C[C@@]12O[C@@H]1O[C@H](CO)[C@@H](O)[C@H](O)[C@H]1O [Paeoniflorin]
- transformation of paeoniflorin in intestinal bacteria ([1]; 37°C, anaerobic, 1 mg/mL paeoniflorin, normal gut bacteria): completely transformed
- metabolism of paeoniflorin in inactivated gut bacteria (control group) ([1]; inactivated bacteria solution): not metabolized
- detection in SD rat brains [2]: not detected
- 96-h cumulative excretion in feces [3, 8]: 0.016%
- 96-h cumulative excretion in urine [3, 8]: 1.66%
- Excretion rate of paeoniflorin (%), Urine (%), cumulative ([3]; time row 0–6 h): 0.6821 ± 0.3209%
- Excretion rate of paeoniflorin (%), Feces (%), cumulative ([3]; time row 6–12 h): 0.0890 ± 0.0568%
- Excretion rate of paeoniflorin (%), Urine (%), cumulative ([3]; time row 6–12 h): 1.2565 ± 0.9639%
- Excretion rate of paeoniflorin (%), Feces (%), cumulative ([3]; time row 12–24 h): 0.1247 ± 0.0763%
- Excretion rate of paeoniflorin (%), Urine (%), cumulative ([3]; time row 12–24 h): 11.4988 ± 6.4969%
- Excretion rate of paeoniflorin (%), Feces (%), cumulative ([3]; time row 24–48 h): 0.1479 ± 0.0932%
- Excretion rate of paeoniflorin (%), Urine (%), cumulative ([3]; time row 24–48 h): 28.6890 ± 13.81%
- Excretion rate of paeoniflorin (%), Feces (%), cumulative ([3]; time row 48–72 h): 0.1630 ± 0.0948%
- Excretion rate of paeoniflorin (%), Urine (%), cumulative ([3]; time row 48–72 h): 42.8196 ± 19.2297%
- Excretion rate of paeoniflorin (%), Feces (%), cumulative ([3]; time row 72–96 h): 0.1805 ± 0.1055%
- Excretion rate of paeoniflorin (%), Urine (%), cumulative ([3]; time row 72–96 h): 43.7953 ± 19.5441%
- AUC(0-t) ([4]; SD, rat, plasma, iv, 2 mg/kg, intravenous 2 mg/kg, normal rats, n = 5, read-out: AUC (0-t)): 1060 ± 326 ng·h/mL
- bioavailability ([4]; SD, rat, plasma, oral, rats, oral 20 mg/kg vs intravenous 2 mg/kg, F = AUCT·Div/AUCiv·DT × 100%, read-out: absolute (oral) bioavailability): 2.32%
- AUC(0-t) ([4]; SD, rat, plasma, po, 20 mg/kg, normal rats, oral paeoniflorin 20 mg/kg, plasma analyte = labelled substance, Figures 2C, 3B, 3C, read-out: AUC(0-t) (unit inferred)): 245 ng·h/mL
- Cmax ([4]; SD, rat, plasma, po, 20 mg/kg, normal rats, oral paeoniflorin 20 mg/kg, plasma analyte = labelled substance, Figures 2C, 3B, 3C, read-out: Cmax (unit inferred)): 119 ng/mL
- AUC(0-t) ([4]; SD, rat, plasma, po, 20 mg/kg, normal rats, oral paeoniflorin 20 mg/kg, plasma analyte = labelled substance, n = 6, read-out: AUC (0-t)): 245 ± 72.8 ng·h/mL
- Cmax ([4]; SD, rat, plasma, po, 20 mg/kg, normal rats, oral paeoniflorin 20 mg/kg, plasma analyte = labelled substance, n = 6, read-out: Cmax): 119 ± 54.3 ng/mL
- AUC(0-inf) [4, 9]: 1070 ± 325 ng·h/mL
- clearance ([4]; SD, rat, plasma, intravenous 2 mg/kg, normal rats, n = 5, read-out: CLz (converted)): 33.3 mL/min/kg
- MRT last [4, 9]: 0.903 ± 0.122 h
- MRT inf [4, 9]: 0.981 ± 0.07 h
- Vd ([4]; SD, rat, plasma, intravenous 2 mg/kg, normal rats, n = 5, read-out: Vz): 6.09 ± 3.11 L/kg
- half-life [4, 9]: 2.06 ± 0.771 h
- MRT last [4, 10]: 2 ± 0.353 h
- MRT inf [4, 10]: 2.04 ± 0.368 h
- AUC(0-inf) [4, 11]: 246 ± 72.8 ng·h/mL
- Tmax [4, 11]: 0.458 ± 0.195 h
- half-life [4, 11]: 1.3 ± 0.474 h
- CLz [4, 12]: 1473 ± 483.58 mL/min/kg
- Vz [4, 12]: 161.261 ± 82.928 L/kg
- AUC(0-t) [4, 13]: 245.29 ± 72.811 ng·h/mL
- Cmax [4, 13]: 119.36 ± 54.3 ng/mL
- absolute (oral) bioavailability ([4]; rats, oral 20 mg/kg vs intravenous 2 mg/kg, F = AUCT·Div/AUCiv·DT × 100%): 2.3%
- AUC(0-t) ([5]; PGF rats (antibiotic pretreated), read-out: AUC (0-t)): 296 ± 100 ng·h/mL
- Cmax ([5]; PGF rats (antibiotic pretreated), read-out: Cmax): 134 ± 48.5 ng/mL
- AUC(0-t) ([5]; PGF rats, Figures 3B, 3C, read-out: AUC(0-t) (unit inferred)): 296 ng·h/mL
- Cmax ([5]; PGF rats, Figures 3B, 3C, read-out: Cmax (unit inferred)): 134 ng/mL
- AUC(0-inf) [5, 14]: 312 ± 123 ng·h/mL
- Tmax [5, 14]: 0.388 ± 0.136 h
- half-life ([5]; PGF rats (antibiotic pretreated), read-out: t1/2z (converted)): 2.58 ± 1.61 h
- abundance of Facklamia, Jeotgalicoccus, Ruminiclostridium_5 and Eubacterium_coprostanoligenes_group in feces (gut microbiota): decreased
- abundance of Lactobacillus, Lachnospira, Eubacterium_ruminantium_group and Roseburia in feces (gut microbiota): increased
- cumulative excretion rate in bile for 60 h [6]: 0.02%
- benzoic acid production in the liver microsome system [7]: no benzoic acid produced
